Data: patent publication US7709523B2, “Alpha-aminoamide derivatives useful as antimigraine agents” (Newron Pharmaceuticals SpA, priority 2003, dated 2010)

Test system: CBF response evoked by electrical stimulation of the left ophthalmic branch of the trigeminal ganglion
Test: Inhibition of cerebral blood flow (CBF) increase evoked by electrical stimulation of the trigeminal ganglion in anesthetized rats
Type: in vivo, Male Wistar rats
Conditions: rat, i.v.; for % Inhibition of the CBF response: mean±S.E. of 4/6 rats, versus vehicle
Procedure: Male Wistar rats (250-350 g) were anesthetized with sodium pentobarbital (50 mg/kg i.p.) dissolved in saline. The trachea and left femoral artery were cannulated for artificial ventilation (55 strokes/min) and for measurement of mean blood pressure (MBP) respectively. The femoral vein was cannulated for the intravenous administration of test agents. Body temperature was maintained at 37-38° C. by automatic control of a heating pad. Animals were placed in a stereotaxic frame and a longitudinal incision was made in the scalp. A burr hole was drilled in the skull and a stainless steel bipolar electrode (Plastic One MS 306) was lowered into left ophthalmic branch of the trigeminal ganglion (3.8 mm […] to bregma, 2.5 mm lateral from the midline and 9.5 mm below the dural surface) and secured with dental cement. Correct placement of the electrode was confirmed by a brief electrical stimulation, which cause movement of the jaw due to activation of the trigeminal fiber. Following removal of the brain, the correct position of the electrode into the fiber, was visually checked at the end of each experiment. A second hole was drilled ipsilateral of the electrode (1.5 mm rostral to bregma, and 1.5 mm lateral from the sagittal suture) and a needle probe (tip diameter 0.8 mm) of a laser doppler flowmeter was fixed pointing with its tip onto a branch of the middle cerebral artery (MCA) and Cerebral Blood Flow (CBF) change recorded on-line by the PeriFlux 4001 Laser Doppler system. Artefacts of the laser Doppler reading during electrical stimulation of the trigeminal ganglion due to muscular movements were prevented by a bolus of i.v. injection of the neuromuscular blocker pancuronium bromide (0.6 mg/kg i.v.). Anesthesia and neuromuscular blockade were maintained all over the experiment with an infusion of sodium pentobarbital and pancuronium (12.5 mg/kg/h+2.4 mg/kg/h, respectively). At the end of the surgery, a pause of thirty minutes was taken in order to stabilize the measured parameters. Rest CBF was increased by electrical stimulation with rectangular pulse of 0.5 msec length, 1-10 Hz, 0.5-1 mA for periods of 30 seconds. After two averaged pre-drug stimulations, vehicle or drugs were administered. The α-aminoamide compounds NW-1015, NW-1029, NW-1039, representative of the invention, and the comparative 2-(4-(2-fluorobenzyloxy)benzylamino)-2-methyl-propanamide (internal code and hereinafter NW1050), 2-(4-(4-fluorobenzyloxy)benzylamino)-2-methyl-propanamide (internal code and hereinafter NW1055, also one of the compounds tested in WO99/26614), 4-(4′-fluorophenoxy)benzaldheyde semicarbazone (hereinafter Co102862, tested in WO00/61188) and vehicle, were administered intravenously after second basal stimulation registering the responses to evoked flow by electrical stimulation at 5, 15, 30 and 60 min after treatment. NW-1015, was administered at the doses of 1, 2 and 5 mg/kg; NW-1029 was administered at the doses of 5 and 10 mg/kg and NW-1039 at the doses of 2 and 5 mg/kg whereas NW-1050, NW-1055 and Co102862 were all administered at the dose of 20 mg/kg. The responses obtained after drug administration were compared to the vehicle group, and were reported as a percentage of the inhibition of the evoked CBF. Data were compared by analysis of covariance (ANCOVA) followed by Dunnet's test. The antimigraine effect of the tested compounds was observed and measured as the percentage of the inhibition after i.v. administration of the above mentioned representative compounds of the CBF evoked in control condition. The data reported in table 1 below show the inhibitory activity of the tested compounds on the CBF response evoked by electrical stimulation of the left ophthalmic branch of the trigeminal ganglion. Results (mean±S.E. of 4/6 rats per group) are expressed as percent of the inhibition on evoked CBF response versus the vehicle.

[1] = dose 20 mg/kg, 5 min after administration
[2] = dose 20 mg/kg, 15 min after administration
[3] = dose 20 mg/kg, 30 min after administration
[4] = dose 20 mg/kg, 60 min after administration
[5] = at the doses tested (1-10 mg/kg), up to 60 min
[6] = dose 2 mg/kg, 5 min after administration
[7] = dose 2 mg/kg, 15 min after administration
[8] = dose 2 mg/kg, 30 min after administration
[9] = dose 2 mg/kg, 60 min after administration
[10] = dose 5 mg/kg, 5 min after administration
[11] = dose 5 mg/kg, 15 min after administration
[12] = dose 5 mg/kg, 30 min after administration
[13] = dose 5 mg/kg, 60 min after administration

With `NC(=O)NN=Cc1ccc(Oc2ccc(F)cc2)cc1` [Co102862, 4-(4′-fluorophenoxy)benzaldheyde semicarbazone, reference compound] the “Effect on the evoked CBF compared to the vehicle group (in words)” value (20 mg/kg) was “completely inactive”, the “% Inhibition of the CBF response” value [1] was 0.9 ± 0.1% and the “% Inhibition of the CBF response” value [2] was 1.1 ± 0.3%. For the same compound, the “% Inhibition of the CBF response” value [3] was 1.2 ± 0.2% and the “% Inhibition of the CBF response” value [4] was 0.7 ± 0.1%.
`C[C@H](NCc1ccc(OCc2cccc(F)c2)cc1)C(N)=O` [NW-1015, (S)-(+)-2-[4-(3-fluorobenzyloxy)benzylamino]-propanamide] was tested, and the “Effect on the evoked CBF compared to the vehicle group (in words)” value [5] was “long lasting i.v. activity reducing the evoked CBF up to 60 min after administration”, the “% Inhibition of the CBF response” value (dose 1 mg/kg, 5 min after administration) was 25.6 ± 2.9% and the “% Inhibition of the CBF response” value (dose 1 mg/kg, 15 min after administration) was 25.8 ± 2.7%. The “% Inhibition of the CBF response” value (dose 1 mg/kg, 30 min after administration) was 36.6 ± 4.7 %, the “% Inhibition of the CBF response” value (dose 1 mg/kg, 60 min after administration) was 15.7 ± 9.8% and the “% Inhibition of the CBF response” value [6] was 15.0 ± 1.8 %. The “% Inhibition of the CBF response” value [7] was 22.0 ± 3.8 %, the “% Inhibition of the CBF response” value [8] was 20.6 ± 6.2 % and the “% Inhibition of the CBF response” value [9] was 4.0 ± 6.3%. For the same compound, the “% Inhibition of the CBF response” value [10] was 25.2 ± 2.6%, the “% Inhibition of the CBF response” value [11] was 35.5 ± 6.5 % and the “% Inhibition of the CBF response” value [12] was 34.7 ± 1.9 %. The “% Inhibition of the CBF response” value [13] was 27.1 ± 3.6%.
For `C[C@H](NCc1ccc(OCc2ccccc2F)cc1)C(N)=O` [NW-1029, (S)-(+)-2-[4-(2-fluorobenzyloxy)benzylamino]-propanamide], the “Effect on the evoked CBF compared to the vehicle group (in words)” value [5] was “reduced the evoked CBF compared to the vehicle up to 60 min post administration”, the “% Inhibition of the CBF response” value [10] was 15.5 ± 3.7% and the “% Inhibition of the CBF response” value [11] was 20.8 ± 3.5%. The “% Inhibition of the CBF response” value [12] was 27.8 ± 3.9 %, the “% Inhibition of the CBF response” value [13] was 30.6 ± 2.8% and the “% Inhibition of the CBF response” value (dose 10 mg/kg, 5 min after administration) was 23.9 ± 3.9%. The “% Inhibition of the CBF response” value (dose 10 mg/kg, 15 min after administration) was 34.9 ± 8.2 %, the “% Inhibition of the CBF response” value (dose 10 mg/kg, 30 min after administration) was 35.3 ± 2.6 % and the “% Inhibition of the CBF response” value (dose 10 mg/kg, 60 min after administration) was 35.7 ± 3.9 %.
In the case of `C[C@H](NCc1ccc(OCc2cccc(Cl)c2)cc1)C(N)=O` [NW-1039, (S)-(+)-2-[4-(3-chlorobenzyloxy)benzylamino]-propanamide], the “Effect on the evoked CBF compared to the vehicle group (in words)” value [5] is reported as “produced a decrease of the evoked CBF response compared to the vehicle group”, the “% Inhibition of the CBF response” value [6] is reported as 24.2 ± 6.2% and the “% Inhibition of the CBF response” value [7] is reported as 31.3 ± 6.2 %. The “% Inhibition of the CBF response” value [8] was 32.1 ± 8.1 %, the “% Inhibition of the CBF response” value [9] was 36.2 ± 9.1 % and the “% Inhibition of the CBF response” value [10] was 45.0 ± 6.3 %. For the same compound, the “% Inhibition of the CBF response” value [11] was 41.7 ± 1.8 %, the “% Inhibition of the CBF response” value [12] was 38.1 ± 2.6 % and the “% Inhibition of the CBF response” value [13] was 20.9 ± 9.4%.
In the case of `CC(C)(NCc1ccc(OCc2ccccc2F)cc1)C(N)=O` [NW-1050, 2-(4-(2-fluorobenzyloxy)benzylamino)-2-methyl-propanamide, reference compound], the “Effect on the evoked CBF compared to the vehicle group (in words)” value (20 mg/kg) is reported as “completely inactive”, the “% Inhibition of the CBF response” value [1] is reported as 1.2 ± 0.3% and the “% Inhibition of the CBF response” value [2] is reported as 1.8 ± 0.6%. The “% Inhibition of the CBF response” value [3] was 1.7 ± 0.8% and the “% Inhibition of the CBF response” value [4] was 0.9 ± 0.1%.
With `CC(C)(NCc1ccc(OCc2ccc(F)cc2)cc1)C(N)=O` [NW-1055, 2-(4-(4-fluorobenzyloxy)benzylamino)-2-methyl-propanamide, reference compound] the “Effect on the evoked CBF compared to the vehicle group (in words)” value (20 mg/kg) was “light inhibition of the evoked CBF, which however did not reach a statistically significant difference”, the “% Inhibition of the CBF response” value [1] was 6.9 ± 4.2% and the “% Inhibition of the CBF response” value [2] was 3.4 ± 3.2%. The “% Inhibition of the CBF response” value [3] was 11.3 ± 2.0% and the “% Inhibition of the CBF response” value [4] was 14.0 ± 4.0%.
